We go through 1 molecule from ChEMBL document CHEMBL4330132, “5-Keto-3-cyano-2,4-diaminothiophenes as selective maternal embryonic leucine zipper kinase inhibitors” (Bioorg Med Chem Lett, 2019).

The test system of assay [1] is Tyrosine-protein kinase ABL1 (Homo sapiens), P00519 [E255K]. As to the kind of experiment: Binding affinity to human phosphorylated ABL1 E255K mutant (S229 to K512 residues) expressed in mammalian expression system assessed as residual binding level at 1 uM by Kinomescan method relative to control.
The target in assay [2] is Tyrosine-protein kinase ABL1 (Homo sapiens) (UniProt P00519). As to the kind of experiment: Binding affinity to wild-type human phosphorylated ABL1 (S229 to K512 residues) expressed in mammalian expression system assessed as residual binding level at 1 uM by Kinomescan method relative to control.
In assay [3] the target is Activin receptor type-2A (Homo sapiens) (UniProt P27037). As to the kind of experiment: Binding affinity to wild-type human ACVR2A (V171 to T499 residues) expressed in bacterial expression system assessed as residual binding level at 1 uM by Kinomescan method relative to control.
Activin receptor type-2A (Homo sapiens), sequence (P27037 whole entry, the tested form may be a part): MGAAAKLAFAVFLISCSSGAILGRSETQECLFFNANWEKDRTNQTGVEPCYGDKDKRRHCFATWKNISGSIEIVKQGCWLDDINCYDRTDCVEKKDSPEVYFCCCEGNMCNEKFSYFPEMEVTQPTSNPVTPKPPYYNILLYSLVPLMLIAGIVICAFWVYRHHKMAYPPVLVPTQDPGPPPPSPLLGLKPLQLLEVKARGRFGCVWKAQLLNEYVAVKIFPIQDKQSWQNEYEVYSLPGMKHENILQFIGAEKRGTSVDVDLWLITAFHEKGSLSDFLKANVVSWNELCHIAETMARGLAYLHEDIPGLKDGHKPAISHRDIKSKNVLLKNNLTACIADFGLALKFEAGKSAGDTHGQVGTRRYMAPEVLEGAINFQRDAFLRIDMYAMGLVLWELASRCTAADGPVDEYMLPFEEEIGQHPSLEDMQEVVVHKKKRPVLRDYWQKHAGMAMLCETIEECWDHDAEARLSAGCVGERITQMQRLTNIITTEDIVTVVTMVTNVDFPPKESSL
The target in assay [4] is BMP-2-inducible protein kinase (Homo sapiens) (UniProt Q9NSY1). Put plainly: Binding affinity to wild-type human partial length BIKE (S34 to N329 residues) expressed in bacterial expression system assessed as residual binding level at 1 uM by Kinomescan method relative to control.
Assay [5] has as its target Tyrosine-protein kinase Blk (Homo sapiens) (UniProt P51451). As to the kind of experiment: Binding affinity to wild-type human partial length BLK (G211 to L503 residues) expressed in bacterial expression system assessed as residual binding level at 1 uM by Kinomescan method relative to control.
The target of assay [6] is Cyclin-dependent kinase 5 (Homo sapiens) (UniProt Q00535). Put plainly: Binding affinity to wild-type human full length CDK5 (M1 to P292 residues) expressed in bacterial expression system assessed as residual binding level at 1 uM by Kinomescan method relative to control.
For assay [7], the target named is Casein kinase I isoform alpha-like (Homo sapiens) (UniProt Q8N752). As to the kind of experiment: Binding affinity to wild-type human full length CSNK1A1L (M1 to N337 residues) expressed in bacterial expression system assessed as residual binding level at 1 uM by Kinomescan method relative to control.
For assay [8], the target named is Casein kinase I isoform delta (Homo sapiens) (UniProt P48730). As to the kind of experiment: Binding affinity to wild-type human full length CSNK1D (M1 to K409 residues) expressed in bacterial expression system assessed as residual binding level at 1 uM by Kinomescan method relative to control.
Assay [9] concerns the target Casein kinase I isoform gamma-1 (Homo sapiens) (UniProt Q9HCP0). As to the kind of experiment: Binding affinity to wild-type human partial length CSNK1G1 (T15 to S353 residues) expressed in bacterial expression system assessed as residual binding level at 1 uM by Kinomescan method relative to control.
For assay [10], the target named is Serine/threonine-protein kinase MRCK gamma (Homo sapiens) (UniProt Q6DT37). Put plainly: Binding affinity to wild-type human partial length DMPK2 (S46 to S408 residues) expressed in bacterial expression system assessed as residual binding level at 1 uM by Kinomescan method relative to control.
Assay [11] deals with Epidermal growth factor receptor (Homo sapiens), P00533 [UNDEFINED MUTATION]. As to the kind of experiment: Binding affinity to human partial length EGFR S752-I759del mutant expressed in bacterial expression system assessed as residual binding level at 1 uM by Kinomescan method relative to control.
The target in assay [12] is Eukaryotic translation initiation factor 2-alpha kinase 1 (Homo sapiens) (UniProt Q9BQI3). As to the kind of experiment: Binding affinity to wild-type human partial length EIF2AK1 (Q147 to E603 residues) expressed in mammalian expression system assessed as residual binding level at 1 uM by Kinomescan method relative to control.
For assay [13], the target named is Receptor tyrosine-protein kinase erbB-2 (Homo sapiens) (UniProt P04626). As to the kind of experiment: Binding affinity to wild-type human partial length ERBB2 (K646 to V1225 residues) expressed in mammalian expression system assessed as residual binding level at 1 uM by Kinomescan method relative to control.
Receptor tyrosine-protein kinase erbB-2 (Homo sapiens), sequence (P04626 whole entry, the tested form may be a part): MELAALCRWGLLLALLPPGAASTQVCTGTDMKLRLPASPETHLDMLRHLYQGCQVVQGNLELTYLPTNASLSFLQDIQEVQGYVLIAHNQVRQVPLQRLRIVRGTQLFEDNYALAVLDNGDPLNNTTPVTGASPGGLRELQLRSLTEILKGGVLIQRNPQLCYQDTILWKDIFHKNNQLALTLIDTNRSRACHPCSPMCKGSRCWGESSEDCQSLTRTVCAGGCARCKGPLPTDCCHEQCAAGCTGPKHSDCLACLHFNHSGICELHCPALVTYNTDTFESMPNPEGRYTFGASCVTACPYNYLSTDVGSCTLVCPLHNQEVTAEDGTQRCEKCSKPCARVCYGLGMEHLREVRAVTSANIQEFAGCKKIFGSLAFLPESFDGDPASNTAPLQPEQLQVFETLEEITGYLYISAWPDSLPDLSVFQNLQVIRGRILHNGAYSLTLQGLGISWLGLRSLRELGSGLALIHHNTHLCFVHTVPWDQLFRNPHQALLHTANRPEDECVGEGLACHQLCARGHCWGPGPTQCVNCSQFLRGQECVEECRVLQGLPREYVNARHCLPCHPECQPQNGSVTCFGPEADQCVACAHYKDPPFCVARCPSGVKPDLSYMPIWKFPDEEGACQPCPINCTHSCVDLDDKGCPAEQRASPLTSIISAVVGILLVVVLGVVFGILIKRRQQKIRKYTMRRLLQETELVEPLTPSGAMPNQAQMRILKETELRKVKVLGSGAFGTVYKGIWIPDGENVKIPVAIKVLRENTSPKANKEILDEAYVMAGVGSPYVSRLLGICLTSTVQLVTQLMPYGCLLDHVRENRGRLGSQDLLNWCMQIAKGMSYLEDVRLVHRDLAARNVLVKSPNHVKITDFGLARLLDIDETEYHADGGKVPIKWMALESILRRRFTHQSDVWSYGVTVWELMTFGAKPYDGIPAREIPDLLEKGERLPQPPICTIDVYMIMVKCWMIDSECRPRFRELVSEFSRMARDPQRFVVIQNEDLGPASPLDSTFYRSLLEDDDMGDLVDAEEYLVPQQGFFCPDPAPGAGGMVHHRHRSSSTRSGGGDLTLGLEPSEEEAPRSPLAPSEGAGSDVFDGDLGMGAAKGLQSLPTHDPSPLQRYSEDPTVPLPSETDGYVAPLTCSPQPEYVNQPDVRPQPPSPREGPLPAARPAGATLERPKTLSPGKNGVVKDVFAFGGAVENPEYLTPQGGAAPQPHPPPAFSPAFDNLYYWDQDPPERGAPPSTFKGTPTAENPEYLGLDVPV
Assay [14] deals with Inhibitor of nuclear factor kappa-B kinase subunit alpha (Homo sapiens) (UniProt O15111). Put plainly: Binding affinity to wild-type human full length IKK-alpha (M1 to E745 residues) expressed in mammalian expression system assessed as residual binding level at 1 uM by Kinomescan method relative to control.
Inhibitor of nuclear factor kappa-B kinase subunit alpha (Homo sapiens), sequence (O15111 whole entry, the tested form may be a part): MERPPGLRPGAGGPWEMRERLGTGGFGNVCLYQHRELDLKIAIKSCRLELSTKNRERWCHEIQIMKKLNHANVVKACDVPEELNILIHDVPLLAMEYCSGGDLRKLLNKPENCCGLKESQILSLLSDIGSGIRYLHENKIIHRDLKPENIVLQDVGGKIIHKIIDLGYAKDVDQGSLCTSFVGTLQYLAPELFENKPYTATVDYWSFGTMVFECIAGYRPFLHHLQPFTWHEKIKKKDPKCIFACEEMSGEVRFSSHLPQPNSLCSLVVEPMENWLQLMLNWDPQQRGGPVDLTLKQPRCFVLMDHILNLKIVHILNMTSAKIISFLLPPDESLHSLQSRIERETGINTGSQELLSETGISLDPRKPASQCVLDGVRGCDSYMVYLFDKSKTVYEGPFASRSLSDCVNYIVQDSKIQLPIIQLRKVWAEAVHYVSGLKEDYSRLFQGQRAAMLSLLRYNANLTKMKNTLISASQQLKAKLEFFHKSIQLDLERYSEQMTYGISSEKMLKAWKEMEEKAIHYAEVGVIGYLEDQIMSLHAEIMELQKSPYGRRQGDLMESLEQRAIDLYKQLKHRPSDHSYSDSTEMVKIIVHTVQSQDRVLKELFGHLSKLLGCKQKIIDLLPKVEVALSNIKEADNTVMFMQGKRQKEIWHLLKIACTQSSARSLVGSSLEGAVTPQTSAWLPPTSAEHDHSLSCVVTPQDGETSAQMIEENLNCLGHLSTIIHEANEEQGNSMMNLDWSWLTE
The target of assay [15] is Interleukin-1 receptor-associated kinase 1 (Homo sapiens) (UniProt P51617). Put plainly: Binding affinity to wild-type human partial length IRAK1 (R194 to S712 residues) expressed in mammalian expression system assessed as residual binding level at 1 uM by Kinomescan method relative to control.
The target in assay [16] is Mitogen-activated protein kinase kinase kinase kinase 4 (Homo sapiens) (UniProt O95819). Put plainly: Binding affinity to wild-type human partial length MAP4K4 (M1 to R310 residues) expressed in bacterial expression system assessed as residual binding level at 1 uM by Kinomescan method relative to control.
For assay [17], the target named is Serine/threonine-protein kinase Nek9 (Homo sapiens) (UniProt Q8TD19). Put plainly: Binding affinity to wild-type human partial length NEK9 (P32 to R328 residues) expressed in bacterial expression system assessed as residual binding level at 1 uM by Kinomescan method relative to control.
Serine/threonine-protein kinase Nek9 (Homo sapiens), sequence (Q8TD19 whole entry, the tested form may be a part): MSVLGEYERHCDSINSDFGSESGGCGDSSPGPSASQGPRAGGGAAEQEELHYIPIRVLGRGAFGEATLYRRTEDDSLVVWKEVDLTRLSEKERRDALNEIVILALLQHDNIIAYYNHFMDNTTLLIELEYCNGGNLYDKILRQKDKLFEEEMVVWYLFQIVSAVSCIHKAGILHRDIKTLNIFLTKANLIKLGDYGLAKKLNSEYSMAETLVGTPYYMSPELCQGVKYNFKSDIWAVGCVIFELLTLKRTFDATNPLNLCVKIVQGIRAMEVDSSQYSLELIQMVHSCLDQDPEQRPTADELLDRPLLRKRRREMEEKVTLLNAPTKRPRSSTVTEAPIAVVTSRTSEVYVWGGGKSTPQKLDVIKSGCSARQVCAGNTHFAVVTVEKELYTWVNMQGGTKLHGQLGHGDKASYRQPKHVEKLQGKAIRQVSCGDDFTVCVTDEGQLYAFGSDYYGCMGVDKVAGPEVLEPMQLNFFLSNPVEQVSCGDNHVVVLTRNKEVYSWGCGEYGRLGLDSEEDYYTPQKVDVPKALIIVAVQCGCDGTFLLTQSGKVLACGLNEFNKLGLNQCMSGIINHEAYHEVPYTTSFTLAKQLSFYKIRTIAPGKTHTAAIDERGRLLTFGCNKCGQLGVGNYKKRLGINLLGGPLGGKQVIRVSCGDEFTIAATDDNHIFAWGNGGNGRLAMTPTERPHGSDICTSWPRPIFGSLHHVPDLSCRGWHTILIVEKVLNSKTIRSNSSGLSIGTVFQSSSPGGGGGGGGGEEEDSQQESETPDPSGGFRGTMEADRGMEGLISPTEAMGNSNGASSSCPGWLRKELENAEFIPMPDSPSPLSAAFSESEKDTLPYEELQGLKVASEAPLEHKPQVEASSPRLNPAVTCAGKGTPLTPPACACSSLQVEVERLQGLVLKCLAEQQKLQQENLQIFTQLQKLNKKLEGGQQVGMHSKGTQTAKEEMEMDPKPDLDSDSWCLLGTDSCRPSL
Assay [18] addresses Cyclin-dependent kinase 18 (Homo sapiens) (UniProt Q07002). As to the kind of experiment: Binding affinity to wild-type human full length PCTK3 (M3 to F474 residues) expressed in bacterial expression system assessed as residual binding level at 1 uM by Kinomescan method relative to control.
Assay [19] concerns the target 3-phosphoinositide-dependent protein kinase 1 (Homo sapiens) (UniProt O15530). Put plainly: Binding affinity to wild-type human full length PDPK1 (M1 to Q556 residues) expressed in bacterial expression system assessed as residual binding level at 1 uM by Kinomescan method relative to control.
Assay [20] concerns the target Phosphatidylinositol 5-phosphate 4-kinase type-2 gamma (Homo sapiens) (UniProt Q8TBX8). Put plainly: Binding affinity to wild-type human partial length PIP5K2C (M1 to A421 residues) expressed in mammalian expression system assessed as residual binding level at 1 uM by Kinomescan method relative to control.
Assay [21] addresses Rho-associated protein kinase 2 (Homo sapiens) (UniProt O75116). As to the kind of experiment: Binding affinity to wild-type human partial length ROCK2 (M1 to T431 residues) expressed in mammalian expression system assessed as residual binding level at 1 uM by Kinomescan method relative to control.
The target in assay [22] is Ribosomal protein S6 kinase alpha-4 (Homo sapiens) (UniProt O75676). As to the kind of experiment: Binding affinity to wild-type human partial length N-terminal RPS6KA4 kinase domain 1 expressed in bacterial expression system assessed as residual binding level at 1 uM by Kinomescan method relative to control.
Ribosomal protein S6 kinase alpha-4 (Homo sapiens), sequence (O75676 whole entry, looked up, the tested form may be a part): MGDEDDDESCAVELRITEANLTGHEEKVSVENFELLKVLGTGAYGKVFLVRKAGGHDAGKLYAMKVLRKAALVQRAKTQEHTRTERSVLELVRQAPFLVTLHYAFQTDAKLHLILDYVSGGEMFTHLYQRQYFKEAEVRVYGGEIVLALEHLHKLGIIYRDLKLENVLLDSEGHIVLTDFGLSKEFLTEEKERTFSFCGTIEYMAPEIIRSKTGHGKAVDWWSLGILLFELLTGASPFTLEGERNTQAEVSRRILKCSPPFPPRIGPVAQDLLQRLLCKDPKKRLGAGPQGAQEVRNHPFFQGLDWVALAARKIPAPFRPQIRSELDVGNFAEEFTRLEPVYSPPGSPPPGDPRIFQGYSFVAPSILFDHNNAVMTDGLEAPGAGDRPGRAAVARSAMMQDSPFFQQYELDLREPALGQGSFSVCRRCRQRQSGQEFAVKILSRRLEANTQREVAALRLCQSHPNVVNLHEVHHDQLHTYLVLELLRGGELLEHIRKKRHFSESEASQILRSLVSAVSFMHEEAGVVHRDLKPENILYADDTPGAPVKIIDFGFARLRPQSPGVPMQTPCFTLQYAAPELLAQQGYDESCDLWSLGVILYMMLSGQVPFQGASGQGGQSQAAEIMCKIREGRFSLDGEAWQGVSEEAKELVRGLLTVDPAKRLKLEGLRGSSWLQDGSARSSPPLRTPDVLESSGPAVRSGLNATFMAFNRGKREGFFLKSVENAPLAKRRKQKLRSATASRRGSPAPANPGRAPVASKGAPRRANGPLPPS
The target of assay [23] is Non-receptor tyrosine-protein kinase TYK2 (Homo sapiens) (UniProt P29597). As to the kind of experiment: Binding affinity to wild-type human partial length TYK2 JH2 pseudokinase domain (G556 to D888 residues) expressed in mammalian expression system assessed as residual binding level at 1 uM by Kinomescan method relative to control.
Assay [24] addresses Mitogen-activated protein kinase kinase kinase 12 (Homo sapiens) (UniProt Q12852). Put plainly: Binding affinity to wild-type human full length DLK (M1 to P859 residues) expressed in mammalian expression system assessed as residual binding level at 1 uM by Kinomescan method relative to control.

3-phosphoinositide-dependent protein kinase 1 (Homo sapiens), sequence (O15530 whole entry, the tested form may be a part): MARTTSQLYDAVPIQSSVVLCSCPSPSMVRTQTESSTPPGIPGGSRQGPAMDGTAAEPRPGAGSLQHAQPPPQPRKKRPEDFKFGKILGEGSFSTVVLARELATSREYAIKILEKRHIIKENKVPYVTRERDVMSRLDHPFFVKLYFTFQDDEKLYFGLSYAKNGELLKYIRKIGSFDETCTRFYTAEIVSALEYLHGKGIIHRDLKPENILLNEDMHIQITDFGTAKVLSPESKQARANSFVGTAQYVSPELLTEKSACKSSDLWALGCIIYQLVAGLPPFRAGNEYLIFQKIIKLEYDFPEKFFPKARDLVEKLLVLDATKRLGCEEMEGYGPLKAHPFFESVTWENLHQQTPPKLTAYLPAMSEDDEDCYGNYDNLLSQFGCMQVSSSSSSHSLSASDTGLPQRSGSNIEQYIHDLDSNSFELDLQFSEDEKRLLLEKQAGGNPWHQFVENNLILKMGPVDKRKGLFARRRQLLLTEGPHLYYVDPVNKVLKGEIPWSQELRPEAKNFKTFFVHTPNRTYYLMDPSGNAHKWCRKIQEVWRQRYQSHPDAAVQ

Regarding `CC(C)Nc1sc(C(=O)c2ccc(Cl)s2)c(N)c1C#N`, the Activity was 100% in [1]; 100% in [2]; 62% in [3]; 56% in assay [4]; 60% in assay [5]; 100% in [6]. Besides, the Activity came to 91% in assay [7]; 59% in assay [8]; 95% in [9]; 100% in assay [10]; 75% in [11]; 100% in assay [12]. The Activity in assay [13] worked out at 76%; in [14] it was 100%; in [15], 77%; in assay [16], 46%; in [17], 85%; in [18], 100%. Besides, the Activity in assay [19] stood at 84%; in assay [20], 100%; in [21], 100%; in assay [22] it was 100%; in assay [23], 100%; in assay [24] it was 99%.
